Where “and” joins values, the source holds several entries; their conditions need not be identical. Equal values may be shown once. Read-outs that look alike come from different tables or passages of the source.
How the values were obtained:
[1] = tested on: c-Src 3T3 cells; assay: BrdU cell growth inhibition, c-Src 3T3; type: cell-based, mouse; settings: for GI50: c-Src 3T3 (c-Src527F/NIH3T3) cells, read-out: GI50
Method in brief: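 c-Src 3T3 cells on poly-D-lysine plates in DMEM with 2% FBS, L-glutamine, pyruvate and 10 mM HEPES. Compounds came from 20 mM DMSO stocks diluted in DMEM/10% FBS. Proliferation was read by colorimetric BrdU-incorporation ELISA, and GI50 was extrapolated from growth relative to time-zero and untreated controls.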

[2] = tested on: HT29 cell line; assay: BrdU cell growth inhibition, HT29; type: cell-based, human; settings: for GI50: read-out: GI50
Method in brief: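 HT29 colon carcinoma cells treated with compounds diluted from 20 mM DMSO stocks into DMEM/10% FBS. Proliferation read as colorimetric BrdU incorporation ELISA; GI calculated relative to untreated cells at time 0 and control cells at day n, with GI50 extrapolated. Net cell loss below time-0 level scored as cytotoxicity.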

[3] = tested on: lung cancer cell line A549; assay: tumor growth inhibition, A549; type: cell-based, Human; settings: A549 (Lung) cells
Excerpt: (§1) Growth Inhibition. […] T1 values≤T0 values were designated as T, cytotoxicity.

[4] = tested on: K562 (CML); assay: growth inhibition (BrdU), K562; type: cell-based, Human; settings: K562 (CML)
Excerpt: as §1

[5] = tested on: MDA231 (Breast); assay: growth inhibition (BrdU), MDA231; type: cell-based, Human; settings: MDA231 (Breast) cells
Excerpt: as §1

[6] = brain exposure after oral administration; type: in vivo, male CD-1 mice; settings: for AUClast: Brain; for KX2-361 Brain Concentrations, Group A / KX2-361 Brain Concentrations, Group B / KX2-361 Brain Concentrations, Group C: Male CD-1 mice, single PO dose 10 mg/kg (Group 3)
Method: (§2) Plasma concentrations were measured in mice after oral administration. All doses were formulated in purified water. Four groups of male CD-1 mice were dosed after an overnight fast and fed 4 hours post-dose. Dosing was as follows:
(§3) Protein was precipitated with 0.25 mL acetonitrile for plasma, 0.25 mL for brain. After centrifugation, supernatant was directly injected into an LC/MS system. The limit of quantitation was 1 ng/mL using a 50 μL aliquot for plasma and a 50 μL, aliquot for brain. The standard curve was 1 to 1,000 ng/mL for both plasma and brain. HPLC conditions were as follows:
(§4) HPLC System: Shimadzu SCL-10 System
(§5) • Analytical Column: Aquasil C18 5 μm 100×2 mm column. • Column Temperature: Ambient temperature • Autosampler Temperature: Ambient temperature • Mobile Phase A) 10 mM Ammonium formate in water (pH 4). • B) Acetonitrile. • Flow Rate: 0.6 mL/min • Injection Volume: 2 μL • Gradient:
(§6) • Mass Spectrometry Conditions were as follows: • Instrument: ABI Sciex API 4000 • Mode: ESI+ • Experiment: MRM (multiple reaction monitoring) • Transitions: KX2-391: m/z 432.4→114.2 (Rt=3.11 minute) • KX2-361: m/z 406.1→253.2 (Rt=3.33 minute)

[7] = plasma exposure after oral administration; type: in vivo, male CD-1 mice; settings: Male CD-1 mice
Method: as §2, §3, §4, §5, §6

[8] = single PO dose 10 mg/kg (Group 3), 0 hr
[9] = single PO dose 10 mg/kg (Group 3), 0.5 hr
[10] = single PO dose 10 mg/kg (Group 3), 1 hr
[11] = single PO dose 10 mg/kg (Group 3), 2 hr
[12] = single PO dose 10 mg/kg (Group 3), 5 hr
[13] = single PO dose 50 mg/kg (Group 4), 0 hr
[14] = single PO dose 50 mg/kg (Group 4), 0.5 hr
[15] = single PO dose 50 mg/kg (Group 4), 1 hr
[16] = single PO dose 50 mg/kg (Group 4), 2 hr
[17] = single PO dose 50 mg/kg (Group 4), 5 hr

O=C(Cc1ccc(-c2ccc(OCCN3CCOCC3)cc2)cn1)NCc1ccccc1 [KXO1]
GI50 [1]: 23 nM
GI50 ([2]; HT29 (Colon) cells): 25 nM
GI50 [3]: 9.4 nM and 13 nM
GI50 [4]: 13 nM
GI50 [5]: 20 nM

O=C(Cc1ccc(-c2ccc(N3CCOCC3)cc2)cn1)NCc1cccc(F)c1 [KX2-361]
AUClast ([6]; single oral dose 10 mg/kg): 656 ng·h/g
AUClast ([6]; single oral dose 50 mg/kg): 3338 ng·h/g
KX2-361 Brain Concentrations, Group A ([6]; 0 hr): BLQ (BLQ: Below Limit of Quantitation (1 ng/mL))
KX2-361 Brain Concentrations, Group B ([6]; 0 hr): BLQ (BLQ: Below Limit of Quantitation (1 ng/mL))
KX2-361 Brain Concentrations, Group C ([6]; 0 hr): BLQ (BLQ: Below Limit of Quantitation (1 ng/mL))
KX2-361 Brain Concentrations, Group A ([6]; 0.5 hr): 43.98 ng/g
KX2-361 Brain Concentrations, Group B ([6]; 0.5 hr): 138.55 ng/g
KX2-361 Brain Concentrations, Group C ([6]; 0.5 hr): 116.84 ng/g
KX2-361 Brain Concentrations, Group B ([6]; 1 hr): 334.71 ng/g
KX2-361 Brain Concentrations, Group C ([6]; 1 hr): 273.32 ng/g
KX2-361 Brain Concentrations, Group A ([6]; 2 hr): 109.78 ng/g
KX2-361 Brain Concentrations, Group B ([6]; 2 hr): 78.76 ng/g
KX2-361 Brain Concentrations, Group C ([6]; 2 hr): 336.07 ng/g
KX2-361 Brain Concentrations, Group A ([6]; 5 hr): BLQ (BLQ: Below Limit of Quantitation (1 ng/mL))
KX2-361 Brain Concentrations, Group C ([6]; 5 hr): 47.85 ng/g
AUClast Brain/AUClast Plasma Ratio ([6]; single oral dose 10 mg/kg): 0.76
KX2-361 Plasma Concentrations, Group A [7, 8]: BLQ (BLQ: Below Limit of Quantitation (1 ng/mL))
KX2-361 Plasma Concentrations, Group B [7, 8]: BLQ (BLQ: Below Limit of Quantitation (1 ng/mL))
KX2-361 Plasma Concentrations, Group C [7, 8]: BLQ (BLQ: Below Limit of Quantitation (1 ng/mL))
KX2-361 Plasma Concentrations, Group A [7, 9]: 65.93 ng/mL
KX2-361 Plasma Concentrations, Group B [7, 9]: 217.56 ng/mL
KX2-361 Plasma Concentrations, Group C [7, 9]: 159.53 ng/mL
KX2-361 Plasma Concentrations, Group A [7, 10]: 284.09 ng/mL
KX2-361 Plasma Concentrations, Group B [7, 10]: 596.31 ng/mL
KX2-361 Plasma Concentrations, Group C [7, 10]: 398.35 ng/mL
KX2-361 Plasma Concentrations, Group A [7, 11]: 153.07 ng/mL
KX2-361 Plasma Concentrations, Group B [7, 11]: 118.96 ng/mL
KX2-361 Plasma Concentrations, Group C [7, 11]: 342.45 ng/mL
KX2-361 Plasma Concentrations, Group A [7, 12]: 2.63 ng/mL
KX2-361 Plasma Concentrations, Group B [7, 12]: 64.15 ng/mL
KX2-361 Plasma Concentrations, Group C [7, 12]: 53.18 ng/mL
KX2-361 Plasma Concentrations, Group A [7, 13]: BLQ (BLQ: Below Limit of Quantitation (1 ng/mL))
KX2-361 Plasma Concentrations, Group B [7, 13]: BLQ (BLQ: Below Limit of Quantitation (1 ng/mL))
KX2-361 Plasma Concentrations, Group C [7, 13]: BLQ (BLQ: Below Limit of Quantitation (1 ng/mL))
KX2-361 Plasma Concentrations, Group B [7, 14]: 2316.91 ng/mL
KX2-361 Plasma Concentrations, Group C [7, 14]: 1587.18 ng/mL
KX2-361 Plasma Concentrations, Group A [7, 15]: 1805.19 ng/mL
KX2-361 Plasma Concentrations, Group B [7, 15]: 969.48 ng/mL
KX2-361 Plasma Concentrations, Group C [7, 15]: 3635.91 ng/mL
KX2-361 Plasma Concentrations, Group A [7, 16]: 475.13 ng/mL
KX2-361 Plasma Concentrations, Group B [7, 16]: 1710.13 ng/mL
KX2-361 Plasma Concentrations, Group C [7, 16]: 1709.02 ng/mL
KX2-361 Plasma Concentrations, Group A [7, 17]: 138.53 ng/mL
KX2-361 Plasma Concentrations, Group B [7, 17]: 252.81 ng/mL
KX2-361 Plasma Concentrations, Group C [7, 17]: 298.99 ng/mL
activity at 0.1 µM ([1]; Mus musculus, NIH3T3, 100 nM, read-out: c-Src 3T3 Growth, % of Control Mean, n = 3): < 0%
activity at 1 µM ([1]; Mus musculus, NIH3T3, 1.0 uM, read-out: c-Src 3T3 Growth, % of Control Mean, n = 3): < 0%
activity at 10 µM ([1]; Mus musculus, NIH3T3, 10 uM, read-out: c-Src 3T3 Growth, % of Control Mean, n = 3): < 0%
GI50 ([1]; Mus musculus): 11 nM
GI50 ([2]; Homo sapiens, HT-29, HT29 (Colon) cells): 10 nM
activity at 0.05 µM ([2]; Homo sapiens, HT-29, 50 nM, read-out: HT-29 Growth, % of Control Mean, n = 3): < 0%
activity at 0.5 µM ([2]; Homo sapiens, HT-29, 500 nM, read-out: HT-29 Growth, % of Control Mean, n = 3): < 0%
activity at 5 µM ([2]; Homo sapiens, HT-29, 5 uM, read-out: HT-29 Growth, % of Control Mean, n = 3): < 0%

Source: patent US10196357B2, “Biaryl compositions and methods for modulating a kinase cascade” (Athenex, Inc., priority 2007, dated 2019)
